This is an account of results in patent publication US20250326771A1, “PIPERAZINE DERIVATIVES USEFUL IN HIV THERAPY” (VIIV HEALTHCARE COMPANY, priority 2022, published 2025).

SMILES strings stand for the structures. Like-named read-outs stand apart in the source and are kept apart here.

One assay concerns the target cIAP1-BIR3 (Homo sapiens (Human), UniProt Q13490). Description: BIR binding assay (FRET competition), cIAP1 BIR3. The settings on record: for cIAP1 BIR3 vs BIR2 separation window: fold separation (FS) for cIAP1. The method in brief:
(§1)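 615/665 nm FRET ratio. Compound, His-domain and 200 nM AF647-SMAC peptide incubated 60 min, then 2 nM Eu-W1024 for 30 min. Domains: cIAP1-BIR3 50 nM; XIAP-BIR3 100 nM; cIAP1-BIR2, cIAP2-BIR2 325 nM each. 15-pt 3-fold series; variable-slope IC50.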

For another assay, the target named is cIAP1-BIR2 (Homo sapiens (Human), UniProt Q13490). The experiment in a line: BIR binding assay (FRET competition), cIAP1 BIR2. In outline: as §1
Chain of cIAP1-BIR2 (Q13490 173-257): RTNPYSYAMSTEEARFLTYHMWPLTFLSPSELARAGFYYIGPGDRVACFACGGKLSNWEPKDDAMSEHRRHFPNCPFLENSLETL
The next assay deals with XIAP-BIR2 (Homo sapiens (Human), UniProt P98170). Description: BIR binding assay (FRET competition), XIAP BIR2. In outline: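 Competitive TR-FRET used His-tagged XIAP-BIR2 (200 nM) and 200 nM AlexaFluor647-labelled AVPIAQKSE SMAC peptide in HEPES buffer pH 7.4 with CHAPS, glycerol and DTT, incubated 60 min before 30 min with 2 nM Eu-W1024. The 615/665 nm ratio from a 15-point, 3-fold series was fit with a four-parameter model for IC50/pIC50.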
Chain of XIAP-BIR2 (P98170 124-240): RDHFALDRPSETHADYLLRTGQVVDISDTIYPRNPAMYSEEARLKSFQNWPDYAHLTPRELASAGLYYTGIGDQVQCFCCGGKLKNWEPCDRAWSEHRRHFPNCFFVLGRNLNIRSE

Another assay concerns the target cIAP2-BIR3 (Homo sapiens (Human), UniProt Q13489). The experiment in a line: BIR binding assay (FRET competition), cIAP2 BIR3. As to conditions: for cIAP2 BIR3 vs BIR2 separation window: fold separation (FS) for cIAP2.
Assay [1] relates to Jurkat HIV-luciferase clones. The experiment in a line: Jurkat latency reversal assay. The format is cell-based. As to conditions: Homo sapiens, 48 h; Jurkat latency reversal assay potency; read-out: Jurkat pEC50 (converted). In outline:
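Compounds are titrated 3-fold over 14 points from 10 μM in duplicate at 0.5% DMSO. Clones C16, 115 and N6, grown with 500 nM EFV, are co-incubated for 48 h at 37° C. Virally driven luciferase is read by luminescence, and EC50 and maximal percent activation versus vehicle come from a four-parameter model.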

In a further assay the target is XIAP-BIR3 (Homo sapiens (Human), UniProt P98170). Description: BIR binding assay (FRET competition), XIAP BIR3. As to conditions: for XIAP BIR3 vs BIR2 separation window: fold separation (FS) for XIAP. The method in brief: as §1
Chain of XIAP-BIR3 (P98170 241-356): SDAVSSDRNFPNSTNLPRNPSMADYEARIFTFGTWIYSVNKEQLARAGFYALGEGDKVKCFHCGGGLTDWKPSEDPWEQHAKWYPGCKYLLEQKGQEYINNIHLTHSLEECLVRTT
Another assay addresses cIAP2-BIR2 (Homo sapiens (Human), UniProt Q13489). Description: BIR binding assay (FRET competition), cIAP2 BIR2. The method in brief: as §1
The mark [2] stands for this setting: FRET competition binding, read-out: XIAP BIR2 (pIC50) (converted).

Chain of cIAP1-BIR3 (Q13490 253-363): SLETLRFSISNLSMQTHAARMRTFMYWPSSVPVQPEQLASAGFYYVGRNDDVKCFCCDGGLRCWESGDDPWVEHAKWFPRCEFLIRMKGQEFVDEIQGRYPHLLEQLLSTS
Chain of cIAP2-BIR3 (Q13489 238-349): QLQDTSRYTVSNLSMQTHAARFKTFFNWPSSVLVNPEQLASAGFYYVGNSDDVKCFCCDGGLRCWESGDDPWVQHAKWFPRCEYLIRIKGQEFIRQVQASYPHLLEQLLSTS
Chain of cIAP2-BIR2 (Q13489 158-242): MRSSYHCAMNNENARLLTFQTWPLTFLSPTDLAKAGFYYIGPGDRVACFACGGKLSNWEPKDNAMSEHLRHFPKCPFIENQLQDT

For `C[C@@H]1CN(CC(=O)N2CC(C)(C)c3[nH]c(=O)c(Cc4ccc(F)cc4)cc32)[C@@H](CN2CCN(C(=O)COc3cccc(OCC(=O)N4CCN(C[C@H]5CN[C@H](C)CN5CC(=O)N5CC(C)(C)c6[nH]c(=O)c(Cc7ccc(F)cc7)cc65)[C@H](C)C4)c3)C[C@H]2C)CN1` [Example 11, 1,1′-(2,2′-((3R,3′R,6R,6′R)-(((2R,2′R)-(2,2′-(1,3-phenylenebis(oxy))bis(acetyl))bis(2-methylpiperazine-4,1-diyl))bis(methylene))bis(3-methylpiperazine-6,1-diyl))bis(acetyl))bis(6-(4-fluorobenzyl)-3,3-dimethyl-1,2,3,4-tetrahydro-5H-pyrrolo[3,2-b]pyridin-5-one)], the IC50 on cIAP1-BIR3 was 15.8 to 31.6 nM; at cIAP1-BIR2 it was 1000 to 3160 nM; on XIAP-BIR2 (setting [2]) it was 10000 to 51300 nM; at cIAP2-BIR3, 15.8 to 31.6 nM; at XIAP-BIR3 it was 31.6 to 501 nM; at cIAP2-BIR2, 1000 to 3160 nM. Besides, at cIAP1-BIR3, the “cIAP1 BIR3 vs BIR2 separation window” value is “++ (1,000>FS>100)”. Moreover, the “cIAP2 BIR3 vs BIR2 separation window” value at cIAP2-BIR3 was “++ (1,000>FS>100)”. Further, the EC50 in assay [1] was 63.1 to 316 nM. In addition, on XIAP-BIR3, the “XIAP BIR3 vs BIR2 separation window” value is on record as “++++ (FS>10,000)”.

In the case of `C[C@@H]1CN(CC(=O)N2CC(C)(C)c3[nH]c(=O)c(Cc4ccc(F)cc4)cc32)[C@@H](CN2CCO[C@H](C(=O)N3CCN(C(=O)[C@@H]4CN(C[C@H]5CN[C@H](C)CN5CC(=O)N5CC(C)(C)c6[nH]c(=O)c(Cc7ccc(F)cc7)cc65)CCO4)CC3)C2)CN1` [Example 118, 1,1′-(2,2′-((3R,3′R,6R,6′R)-(((2S,2'S)-(piperazine-1,4-dicarbonyl)bis(morpholine-2,4-diyl))bis(methylene))bis(3-methylpiperazine-6,1-diyl))bis(acetyl))bis(6-(4-fluorobenzyl)-3,3-dimethyl-1,2,3,4-tetrahydro-5H-pyrrolo[3,2-b]pyridin-5-one)], the IC50 at cIAP1-BIR3 was in the range of 7.94 to 15.8 nM; at cIAP1-BIR2 it was 1000 to 3160 nM; at XIAP-BIR2, 10000 to 51300 nM; on cIAP2-BIR3 it was 7.94 to 15.8 nM; on XIAP-BIR3, 7.94 to 15.8 nM; on cIAP2-BIR2, 1000 to 3160 nM. On cIAP1-BIR3, the “cIAP1 BIR3 vs BIR2 separation window” value was “+++ (10,000>FS>1,000)”. For the same compound, the “cIAP2 BIR3 vs BIR2 separation window” value at cIAP2-BIR3 is on record as “+++ (10,000>FS>1,000)”. Also, the EC50 in assay [1] is 12.6 to 63.1 nM. Also, the “XIAP BIR3 vs BIR2 separation window” value on XIAP-BIR3 was “++++ (FS>10,000)”.

For the compound `C[C@@H]1CN(CC(=O)N2CC(C)(C)c3[nH]c(=O)c(Cc4ccc(F)cc4)cc32)[C@@H](CN2CCC(CNC(=O)Cc3ccc(CC(=O)NCC4CCN(C[C@H]5CN[C@H](C)CN5CC(=O)N5CC(C)(C)c6[nH]c(=O)c(Cc7ccc(F)cc7)cc65)CC4)cc3)CC2)CN1` [Example 102, 2,2′-(1,4-phenylene)bis(N-((1-(((2R,5R)-1-(2-(6-(4-fluorobenzyl)-3,3-dimethyl-5-oxo-2,3,4,5-tetrahydro-1H-pyrrolo[3,2-b]pyridin-1-yl)-2-oxoethyl)-5-methylpiperazin-2-yl)methyl)piperidin-4-yl)methyl)acetamide)], the IC50 was 7.94 to 15.8 nM on cIAP1-BIR3; 3160 to 10000 nM at cIAP1-BIR2; 10000 to 51300 nM at XIAP-BIR2 (setting [2]); 7.94 to 15.8 nM on cIAP2-BIR3; 7.94 to 15.8 nM at XIAP-BIR3; 3160 to 10000 nM at cIAP2-BIR2. Moreover, the “cIAP1 BIR3 vs BIR2 separation window” value at cIAP1-BIR3 is reported as “+++ (10,000>FS>1,000)”. Moreover, the “cIAP2 BIR3 vs BIR2 separation window” value on cIAP2-BIR3 was “++++ (FS>10,000)”. In addition, the EC50 in assay [1] is 63.1 to 316 nM. Besides, the “XIAP BIR3 vs BIR2 separation window” value at XIAP-BIR3 is reported as “++++ (FS>10,000)”.
